In patent US7091201B2, “Arylalkane-sulfonamides having endothelin-antagonist activity” (Actelion Pharmaceuticals Ltd., priority 2000, dated 2006):

What was measured:
[1] = biological target: T1, rat aortic rings (ETA receptors) (Rattus norvegicus, UniProt P26684); assay: Inhibition of endothelin-1-induced contractions on isolated rat aortic rings; format: cell-based; conditions: read-out: pA2 (aortic rings) (converted)
T1 construct: from tissue; host or cells: thoracic aorta rings of adult Wistar rats, endothelium removed
T1 sequence (P26684 21-426): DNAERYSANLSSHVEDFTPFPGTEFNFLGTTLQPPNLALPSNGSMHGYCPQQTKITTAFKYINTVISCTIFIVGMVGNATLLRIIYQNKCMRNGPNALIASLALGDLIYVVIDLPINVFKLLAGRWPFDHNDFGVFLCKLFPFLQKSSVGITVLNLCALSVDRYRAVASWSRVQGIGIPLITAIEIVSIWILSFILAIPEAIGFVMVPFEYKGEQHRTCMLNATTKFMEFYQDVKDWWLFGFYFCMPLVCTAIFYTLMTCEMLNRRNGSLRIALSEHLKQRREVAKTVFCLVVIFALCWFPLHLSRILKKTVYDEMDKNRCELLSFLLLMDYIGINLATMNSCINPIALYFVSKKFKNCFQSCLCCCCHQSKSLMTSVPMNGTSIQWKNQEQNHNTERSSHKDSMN
Experimental: (§1) 2) Inhibition of Endothelin-Induced Contractions on Isolated Rat Aortic Rings (ETA Receptors) and Rat Tracheal Rings (ETB Receptors):
(§2) Adult Wistar rats were anesthetized and exsanguinated. The thoracic aorta or trachea were excised, dissected and cut in 3–5 mm rings. The endothelium/epithelium was removed by gentle rubbing of the intimal surface. […] The rings were connected to force transducers and isometric tension was recorded (EMKA Technologies SA, Paris, France). The rings were stretched to a resting tension of 3 g (aorta) or 2 g (trachea). […] The functional inhibitory potency of the test compound was assessed by calculating the concentration ratio, i.e. the shift to the right of the EC50 induced by different concentrations of test compound. EC50 is the concentration of endothelin needed to get a half-maximal contraction, pA2 is the negative logarithm of the antagonist concentration which induces a two-fold shift in the EC50 value.

[2] = biological target: T2, human recombinant ETB receptors (Homo sapiens, UniProt P24530); assay: Inhibition of [125I]ET-1 binding to membranes from CHO cells carrying human ETB receptors
T2 construct: expressed in transfected cells; host or cells: CHO cells
T2 sequence (P24530 27-442): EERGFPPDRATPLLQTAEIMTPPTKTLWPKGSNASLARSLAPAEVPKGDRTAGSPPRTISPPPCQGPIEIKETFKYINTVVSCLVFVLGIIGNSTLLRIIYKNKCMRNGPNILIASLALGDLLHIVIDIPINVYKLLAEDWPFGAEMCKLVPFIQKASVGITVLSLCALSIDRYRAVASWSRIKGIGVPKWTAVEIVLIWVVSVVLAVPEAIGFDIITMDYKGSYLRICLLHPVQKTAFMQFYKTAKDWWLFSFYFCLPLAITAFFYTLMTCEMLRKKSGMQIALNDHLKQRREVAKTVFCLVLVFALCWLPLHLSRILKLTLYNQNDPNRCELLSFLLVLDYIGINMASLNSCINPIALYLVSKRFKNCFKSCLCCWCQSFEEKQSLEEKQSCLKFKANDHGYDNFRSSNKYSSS
Experimental: (§3) 1) Inhibition of Endothelin Binding to Membranes from CHO Cells Carrying Human ET Receptors:
(§4) For competition binding studies, membranes of CHO cells expressing human recombinant ETA or ETB receptors were used.
(§5) The assay was performed in 200 uL 50 mM Tris/HCl buffer, pH 7.4, including 25 mM MnCl2, 1 mM EDTA and 0.5% (w/v) BSA in polypropylene microtiter plates. […] After 2 h, the membranes were filtered on filterplates containing GF/C filters (Unifilterplates from Can berra Packard S. A. Zürich, Switzerland). To each well, 50 uL of scintillation cocktail was added (MicroScint 20, Can berra Packard S. A. Zürich, Switzerland) and the filter plates counted in a microplate counter (TopCount, Can berra Packard S. A. Zürich, Switzerland).
(§6) All the test compounds were dissolved, diluted and added in DMSO.

[3] = biological target: T3, human recombinant ETA receptors (Homo sapiens, UniProt P25101); assay: Inhibition of [125I]ET-1 binding to membranes from CHO cells carrying human ETA receptors
T3 construct: expressed in transfected cells; host or cells: CHO cells
T3 sequence (P25101 21-427): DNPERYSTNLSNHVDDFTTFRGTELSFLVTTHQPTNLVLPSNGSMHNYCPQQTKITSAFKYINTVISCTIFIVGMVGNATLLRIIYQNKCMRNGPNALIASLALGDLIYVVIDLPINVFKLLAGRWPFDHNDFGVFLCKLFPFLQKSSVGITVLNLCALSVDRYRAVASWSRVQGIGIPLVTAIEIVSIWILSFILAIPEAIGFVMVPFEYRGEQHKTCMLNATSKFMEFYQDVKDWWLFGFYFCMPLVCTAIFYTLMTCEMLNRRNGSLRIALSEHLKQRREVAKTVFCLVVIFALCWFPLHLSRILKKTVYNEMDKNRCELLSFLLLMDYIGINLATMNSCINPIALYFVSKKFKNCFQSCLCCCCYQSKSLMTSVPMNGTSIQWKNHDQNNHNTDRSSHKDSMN
Experimental: as §3, §4, §5, §6

[4] = biological target: T4, rat tracheal rings (ETB receptors) (Rattus norvegicus, UniProt P21451); assay: Inhibition of sarafotoxin S6c-induced contractions on isolated rat tracheal rings; format: cell-based
T4 construct: from tissue; host or cells: tracheal rings of adult Wistar rats, epithelium removed
T4 sequence (P21451 27-442): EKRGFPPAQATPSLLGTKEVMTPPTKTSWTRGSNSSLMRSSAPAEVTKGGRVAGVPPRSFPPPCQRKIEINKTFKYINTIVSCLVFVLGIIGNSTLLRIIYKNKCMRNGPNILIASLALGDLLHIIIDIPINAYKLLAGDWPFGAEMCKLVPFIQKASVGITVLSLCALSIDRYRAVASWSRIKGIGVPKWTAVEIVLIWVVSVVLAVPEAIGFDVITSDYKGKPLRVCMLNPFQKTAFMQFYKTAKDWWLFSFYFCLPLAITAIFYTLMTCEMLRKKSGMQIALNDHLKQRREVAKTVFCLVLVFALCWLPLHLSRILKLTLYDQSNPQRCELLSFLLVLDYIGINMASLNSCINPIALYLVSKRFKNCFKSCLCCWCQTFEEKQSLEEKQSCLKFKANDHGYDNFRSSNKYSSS
Experimental: as §1, §2

| Structure (SMILES) | Kb [1] [nM] | IC50 [2] [nM] | IC50 [3] [nM] | Kb [4] [nM] |
| --- | --- | --- | --- | --- |
| Cc1ccc(-c2c(NS(=O)(=O)CCc3ccccc3)ncnc2OCCOc2ncc(C)cn2)cc1 [Example 8] | 37.2 |  |  |  |
| COc1ccccc1Oc1c(NS(=O)(=O)CCc2ccccc2)nc(N2CCOCC2)nc1OCCOc1ncc(SC)cn1 [Example 39] |  | 261 | 3 |  |
| Cc1ccc(-c2c(NS(=O)(=O)CCc3ccccc3)ncnc2OCCOc2ccc(C(F)(F)F)cn2)cc1 [Example 2, 2-phenyl-ethanesulfonic acid {5-p-tolyl-6-[2-(5-trifluoromethyl-pyridin-2-yloxy)-ethoxy]-pyrimidin-4-yl}-amide] |  | 899 | 20 |  |
| Cc1ccc(-c2c(NS(=O)(=O)CCc3ccccc3)ncnc2OCCOc2ncc(Br)cn2)cc1 [Example 7] | 1.48 | 3310 | 4 | 85.1 |
| COc1ccccc1Oc1c(NS(=O)(=O)CCc2ccccc2)nc(-c2ncccn2)nc1OCCOc1ncc(Br)cn1 [Example 5, 2phenylethanesulfonic acid {5-(2-methoxy-phenoxy)-6-[2-(5-bromopyrimidin-2-yloxy)-ethoxy]-2-(2-pyrimidinyl)-4-pyrimidinyl}-amide] | 4.17 |  | 3 |  |
| COc1ccccc1Oc1c(NS(=O)(=O)CCc2ccccn2)nc(-c2ccncc2)nc1OCCOc1ncc(Br)cn1 [Example 61] | 14.8 | 1140 | 10 | 85.1 |
| COc1cnc(OCCOc2nc(-c3cnccn3)nc(NS(=O)(=O)CCc3ccccc3)c2Oc2ccccc2OC)nc1 [Example 34] | 21.4 |  |  |  |
| Cc1ccc(-c2c(NS(=O)(=O)CCc3ccccc3)ncnc2OCCOc2ncc(Br)cn2)cc1C [Example 19] |  | 1930 | 3 |  |
| Cc1ccc(-c2c(NS(=O)(=O)CCCc3ccccc3)ncnc2OCCOc2ncc(Br)cn2)cc1 [Example 75] | 17.4 |  |  |  |
| Cc1ccc(-c2c(NS(=O)(=O)CCc3ccccc3)nc(-c3ncccn3)nc2OCCOc2ncc(Br)cn2)cc1 [Example 14] |  | 2230 | 6 |  |
| Cc1ccc(-c2c(NS(=O)(=O)CCc3ccccc3)nc(-c3ccncc3)nc2OCCOc2ncc(Br)cn2)cc1 [Example 10] |  | 2410 | 9 |  |
| COc1cnc(OCCOc2ncnc(NS(=O)(=O)CCc3ccccc3)c2Oc2cccc(OC)c2)nc1 [Example 47] |  | 2720 | 24 |  |
| Cc1ccc(-c2c(NS(=O)(=O)CCc3ccccc3)nc(-c3ncccn3)nc2OCCOc2ncc(Cl)cn2)cc1 [Example 13] |  | 3680 | 4 |  |
| Cc1ccc(-c2c(NS(=O)(=O)CCc3ccccc3)ncnc2OCCOc2ncccn2)cc1 [Example 1, 2-phenyl-ethanesulfonic acid {6-[2-(pyrimidin-2-yloxy)-ethoxy]-5-p-tolyl-pyrimidin-4-yl}-amide] |  | 6650 | 27 |  |
| COc1cccc(Oc2c(NS(=O)(=O)CCc3ccccc3)ncnc2OCCOc2ncc(Br)cn2)c1 [Example 46] |  | 2360 | 7 |  |
| COc1ccccc1Oc1c(NS(=O)(=O)Cc2ccc(C)cc2)nc(-c2ccncc2)nc1OCCOc1ncc(Br)cn1 [Example 71] |  | > 10000 | 115 |  |
| Cc1ccc(-c2c(NS(=O)(=O)CCc3cccs3)ncnc2OCCOc2ncc(Br)cn2)cc1 [Example 49] |  | 2490 | 4 |  |
| O=S(=O)(CCc1cccs1)Nc1ncnc(OCCOc2ncc(Br)cn2)c1-c1ccc(Cl)cc1 [Example 52] |  | 1770 | 5 |  |
| COc1cnc(OCCOc2nc(-c3ncccn3)nc(NS(=O)(=O)CCc3ccccc3)c2Oc2ccccc2OC)nc1 [Example 29] |  |  | 10 |  |
